Source: patent US20080096967A1, “Formulations for Injection of Catecholic Butanes, Including Ndga Compounds, Into Animals” (priority 2005, published 2008)

Assay: M4N solubility in water miscible organic solvents up to 48 hours (RP-HPLC)
Format: physicochemical
Procedure: To prepare M4N samples, 200 μL of 100 mg/mL M4N dissolved in acetone were placed in 1.5 mL polypropylene microtubes. The solvent was allowed to evaporate at room temperature for 48 hours until the samples were completely dry.
The water miscible organic solvent formulations were prepared in 15 mL polypropylene centrifuge tubes. 10 mL of each formulation was prepared. Each solvent was added on the basis of weight using its respective density at 25° C. Following brief mixing, each formulation was filtered through a 0.45 μm surfactant free cellulose acetate (“SFCA”) filter into a fresh 15 mL tube. Formulations were kept at room temperature until ready for use.
At each time point, the samples were centrifuged for 2 minutes at 13,000 rpm to pellet any solid M4N. As noted in Table 25, over half of the formulation conditions examined were able to solubilize M4N to a concentration of greater than 10 mg/Ml.

COc1ccc(C[C@@H](C)[C@@H](C)Cc2ccc(OC)c(OC)c2)cc1OC [Formulation M4N, meso-1,4-bis(3,4-dimethoxyphenyl)-2,3-dimethylbutane]
M4N solubility (14% EtOH, 30% PG, 40% Crem, 10% T80, 6% DMA, 2 hrs at room temperature): 9.03 mg/mL | M4N solubility (14% EtOH, 30% PG, 40% Crem, 10% T80, 6% DMA, 24 hrs at room temperature): 12.08 mg/mL | M4N solubility (14% EtOH, 30% PG, 40% Crem, 10% T80, 6% DMA, 48 hrs at room temperature): 12.28 mg/mL | M4N solubility (14% EtOH, 30% PG, 40% Glyc, 10% T80, 6% DMA, 2 hrs at room temperature): 0.85 mg/mL | M4N solubility (14% EtOH, 30% PG, 40% Glyc, 10% T80, 6% DMA, 24 hrs at room temperature): 1.24 mg/mL | M4N solubility (14% EtOH, 30% PG, 40% Glyc, 10% T80, 6% DMA, 48 hrs at room temperature): 1.48 mg/mL | M4N solubility (14% EtOH, 30% PG, 40% PEG300, 10% T80, 6% DMA, 2 hrs at room temperature): 9.40 mg/mL | M4N solubility (14% EtOH, 30% PG, 40% PEG300, 10% T80, 6% DMA, 24 hrs at room temperature): 10.55 mg/mL | M4N solubility (14% EtOH, 30% PG, 40% PEG300, 10% T80, 6% DMA, 48 hrs at room temperature): 11.30 mg/mL | M4N solubility (18% EtOH, 30% PG, 40% Crem, 10% T80, 2% Benz, 2 hrs at room temperature): 8.64 mg/mL | M4N solubility (18% EtOH, 30% PG, 40% Crem, 10% T80, 2% Benz, 24 hrs at room temperature): 11.78 mg/mL | M4N solubility (18% EtOH, 30% PG, 40% Crem, 10% T80, 2% Benz, 48 hrs at room temperature): 11.86 mg/mL | M4N solubility (18% EtOH, 30% PG, 40% Glyc, 10% T80, 2% Benz, 2 hrs at room temperature): 0.58 mg/mL | M4N solubility (18% EtOH, 30% PG, 40% Glyc, 10% T80, 2% Benz, 24 hrs at room temperature): 1.01 mg/mL | M4N solubility (18% EtOH, 30% PG, 40% Glyc, 10% T80, 2% Benz, 48 hrs at room temperature): 1.15 mg/mL | M4N solubility (18% EtOH, 30% PG, 40% PEG300, 10% T80, 2% Benz, 2 hrs at room temperature): 7.84 mg/mL | M4N solubility (18% EtOH, 30% PG, 40% PEG300, 10% T80, 2% Benz, 24 hrs at room temperature): 9.79 mg/mL | M4N solubility (18% EtOH, 30% PG, 40% PEG300, 10% T80, 2% Benz, 48 hrs at room temperature): 10.16 mg/mL | M4N solubility (24% EtOH, 30% PG, 30% Crem, 10% T80, 6% DMA, 2 hrs at room temperature): 10.42 mg/mL | M4N solubility (24% EtOH, 30% PG, 30% Crem, 10% T80, 6% DMA, 24 hrs at room temperature): 11.25 mg/mL | M4N solubility (24% EtOH, 30% PG, 30% Crem, 10% T80, 6% DMA, 48 hrs at room temperature): 12.48 mg/mL | M4N solubility (24% EtOH, 30% PG, 30% Glyc, 10% T80, 6% DMA, 2 hrs at room temperature): 1.63 mg/mL | M4N solubility (24% EtOH, 30% PG, 30% Glyc, 10% T80, 6% DMA, 24 hrs at room temperature): 2.26 mg/mL | M4N solubility (24% EtOH, 30% PG, 30% Glyc, 10% T80, 6% DMA, 48 hrs at room temperature): 2.52 mg/mL | M4N solubility (24% EtOH, 30% PG, 30% PEG300, 10% T80, 6% DMA, 2 hrs at room temperature): 9.91 mg/mL | M4N solubility (24% EtOH, 30% PG, 30% PEG300, 10% T80, 6% DMA, 24 hrs at room temperature): 10.80 mg/mL | M4N solubility (28% EtOH, 30% PG, 30% Crem, 10% T80, 2% Benz, 2 hrs at room temperature): 8.98 mg/mL | M4N solubility (28% EtOH, 30% PG, 30% Crem, 10% T80, 2% Benz, 24 hrs at room temperature): 11.35 mg/mL | M4N solubility (28% EtOH, 30% PG, 30% Crem, 10% T80, 2% Benz, 48 hrs at room temperature): 11.28 mg/mL | M4N solubility (28% EtOH, 30% PG, 30% Glyc, 10% T80, 2% Benz, 2 hrs at room temperature): 1.86 mg/mL | M4N solubility (28% EtOH, 30% PG, 30% Glyc, 10% T80, 2% Benz, 24 hrs at room temperature): 2.22 mg/mL | M4N solubility (28% EtOH, 30% PG, 30% Glyc, 10% T80, 2% Benz, 48 hrs at room temperature): 2.53 mg/mL | M4N solubility (28% EtOH, 30% PG, 30% PEG300, 10% T80, 2% Benz, 2 hrs at room temperature): 8.87 mg/mL | M4N solubility (28% EtOH, 30% PG, 30% PEG300, 10% T80, 2% Benz, 24 hrs at room temperature): 10.19 mg/mL | M4N solubility (28% EtOH, 30% PG, 30% PEG300, 10% T80, 2% Benz, 48 hrs at room temperature): 10.27 mg/mL | M4N solubility (44% EtOH, 50% Crem, 6% DMA, 2 hrs at room temperature): 14.85 mg/mL | M4N solubility (44% EtOH, 50% Crem, 6% DMA, 24 hrs at room temperature): 20.42 mg/mL | M4N solubility (44% EtOH, 50% Crem, 6% DMA, 48 hrs at room temperature): 21.08 mg/mL | M4N solubility (44% EtOH, 50% Glycerol, 6% DMA, 2 hrs at room temperature): 1.43 mg/mL | M4N solubility (44% EtOH, 50% Glycerol, 6% DMA, 24 hrs at room temperature): 1.90 mg/mL | M4N solubility (44% EtOH, 50% Glycerol, 6% DMA, 48 hrs at room temperature): 2.01 mg/mL | M4N solubility (44% EtOH, 50% PEG300, 6% DMA, 2 hrs at room temperature): 15.12 mg/mL | M4N solubility (44% EtOH, 50% PEG300, 6% DMA, 24 hrs at room temperature): 18.61 mg/mL | M4N solubility (44% EtOH, 50% PEG300, 6% DMA, 48 hrs at room temperature): 18.27 mg/mL | M4N solubility (44% EtOH, 50% PG, 6% DMA, 2 hrs at room temperature): 4.80 mg/mL | M4N solubility (44% EtOH, 50% PG, 6% DMA, 24 hrs at room temperature): 5.48 mg/mL | M4N solubility (44% EtOH, 50% PG, 6% DMA, 48 hrs at room temperature): 2.93 mg/mL | M4N solubility (44% EtOH, 50% T80, 6% DMA, 2 hrs at room temperature): 17.72 mg/mL | M4N solubility (44% EtOH, 50% T80, 6% DMA, 24 hrs at room temperature): 22.41 mg/mL | M4N solubility (44% EtOH, 50% T80, 6% DMA, 48 hrs at room temperature): 23.00 mg/mL | M4N solubility (48% EtOH, 50% Crem, 2% Benz, 2 hrs at room temperature): 14.02 mg/mL | M4N solubility (48% EtOH, 50% Crem, 2% Benz, 24 hrs at room temperature): 18.17 mg/mL | M4N solubility (48% EtOH, 50% Crem, 2% Benz, 48 hrs at room temperature): 18.51 mg/mL | M4N solubility (48% EtOH, 50% Glycerol, 2% Benz, 2 hrs at room temperature): 1.25 mg/mL | M4N solubility (48% EtOH, 50% Glycerol, 2% Benz, 24 hrs at room temperature): 1.66 mg/mL | M4N solubility (48% EtOH, 50% Glycerol, 2% Benz, 48 hrs at room temperature): 1.73 mg/mL | M4N solubility (48% EtOH, 50% PEG300, 2% Benz, 2 hrs at room temperature): 14.51 mg/mL | M4N solubility (48% EtOH, 50% PEG300, 2% Benz, 24 hrs at room temperature): 15.78 mg/mL | M4N solubility (48% EtOH, 50% PEG300, 2% Benz, 48 hrs at room temperature): 16.49 mg/mL | M4N solubility (48% EtOH, 50% PG, 2% Benz, 2 hrs at room temperature): 4.42 mg/mL | M4N solubility (48% EtOH, 50% PG, 2% Benz, 24 hrs at room temperature): 4.79 mg/mL | M4N solubility (48% EtOH, 50% PG, 2% Benz, 48 hrs at room temperature): 4.92 mg/mL | M4N solubility (48% EtOH, 50% T80, 2% Benz, 2 hrs at room temperature): 16.17 mg/mL | M4N solubility (48% EtOH, 50% T80, 2% Benz, 24 hrs at room temperature): 19.55 mg/mL | M4N solubility (48% EtOH, 50% T80, 2% Benz, 48 hrs at room temperature): 19.96 mg/mL | M4N solubility (50% EtOH, 50% Crem, 2 hrs at room temperature): 13.95 mg/mL | M4N solubility (50% EtOH, 50% Crem, 24 hrs at room temperature): 17.58 mg/mL | M4N solubility (50% EtOH, 50% Crem, 48 hrs at room temperature): 18.49 mg/mL | M4N solubility (50% EtOH, 50% Glycerol, 2 hrs at room temperature): 1.14 mg/mL | M4N solubility (50% EtOH, 50% Glycerol, 24 hrs at room temperature): 1.53 mg/mL | M4N solubility (50% EtOH, 50% Glycerol, 48 hrs at room temperature): 1.60 mg/mL | M4N solubility (50% EtOH, 50% PEG300, 24 hrs at room temperature): 15.07 mg/mL | M4N solubility (50% EtOH, 50% PEG300, 48 hrs at room temperature): 16.61 mg/mL | M4N solubility (50% EtOH, 50% PG, 2 hrs at room temperature): 3.64 mg/mL | M4N solubility (50% EtOH, 50% PG, 24 hrs at room temperature): 4.15 mg/mL | M4N solubility (50% EtOH, 50% PG, 48 hrs at room temperature): 4.43 mg/mL | M4N solubility (50% EtOH, 50% T80, 2 hrs at room temperature): 15.91 mg/mL | M4N solubility (50% EtOH, 50% T80, 24 hrs at room temperature): 19.28 mg/mL | M4N solubility (50% PG, 50% Crem, 2 hrs at room temperature): 2.94 mg/mL | M4N solubility (50% PG, 50% Crem, 24 hrs at room temperature): 6.33 mg/mL | M4N solubility (50% PG, 50% Crem, 48 hrs at room temperature): 7.20 mg/mL | M4N solubility (50% PG, 50% Glycerol, 2 hrs at room temperature): 0.13 mg/mL | M4N solubility (50% PG, 50% Glycerol, 24 hrs at room temperature): 0.48 mg/mL | M4N solubility (50% PG, 50% Glycerol, 48 hrs at room temperature): 0.51 mg/mL | M4N solubility (50% PG, 50% PEG300, 2 hrs at room temperature): 2.65 mg/mL | M4N solubility (50% PG, 50% PEG300, 24 hrs at room temperature): 4.88 mg/mL | M4N solubility (50% PG, 50% PEG300, 48 hrs at room temperature): 5.30 mg/mL | M4N solubility (50% PG, 50% T80, 2 hrs at room temperature): 5.07 mg/mL | M4N solubility (50% PG, 50% T80, 24 hrs at room temperature): 8.16 mg/mL | M4N solubility (50% PG, 50% T80, 48 hrs at room temperature): 8.41 mg/mL | M4N solubility (100% Crem, 2 hrs at room temperature): 1.19 mg/mL | M4N solubility (100% Crem, 24 hrs at room temperature): 7.51 mg/mL | M4N solubility (100% Crem, 48 hrs at room temperature): 12.48 mg/mL | M4N solubility (100% EtOH, 2 hrs at room temperature): 7.20 mg/mL | M4N solubility (100% EtOH, 24 hrs at room temperature): 7.22 mg/mL | M4N solubility (100% EtOH, 48 hrs at room temperature): 7.91 mg/mL | M4N solubility (100% Glycerol, 2 hrs at room temperature): XXX (not detectable) | M4N solubility (100% Glycerol, 24 hrs at room temperature): 0.08 mg/mL | M4N solubility (100% Glycerol, 48 hrs at room temperature): XXX (not detectable) | M4N solubility (glycerol, 2 and 48 hours): not detectable
